According to patent US4183940A, “Antimycotic imidazolyl-9,10-dihydro-anthracene derivatives” (Bayer Aktiengesellschaft, priority 1976, dated 1980):
≈ marks a conversion by molar mass, not a printed value.

Assays:
[1] = test system: Trichophyton mentagrophytes; assay: Antimycotic in vitro activity (series dilution test), Trichophyton mentagrophytes; format: cell-based; conditions: Sabouraud's milieu d'epreuve, 28° C., 24 to 96 hours; for MIC: Trichophyton mentagrophytes, read-out: MIC values in γ/ml of nutrient medium for Trichophyton mentagrophytes
Protocol: (§1) The invitro tests were carried out in a series dilution test with germ inocula of an average of 5×10^4 germs/ml of substrate. The nutrient medium was (a) for dermatophytes and moulds: Sabouraud's milieu d 'epreuve and (b) for yeasts: meat extract/glucose broth. The incubation temperature was 28° C. and the duration of incubation was 24 to 96 hours.

Candida albicans = assay: Antimycotic in vitro activity (series dilution test), Candida albicans; format: cell-based; conditions: meat extract/glucose broth, 28° C., 24 to 96 hours; for MIC: Candida albicans, read-out: MIC values in γ/ml of nutrient medium for Candida albicans
Protocol: as §1

Penicillium commune = assay: Antimycotic in vitro activity (series dilution test), Penicillium commune; format: cell-based; conditions: Sabouraud's milieu d'epreuve, 28° C., 24 to 96 hours; for MIC: Penicillium commune, read-out: MIC values in γ/ml of nutrient medium for Penicillium commune
Protocol: as §1

Aspergillus species = assay: Antimycotic in vitro activity (series dilution test), Aspergillus species; format: cell-based; conditions: Sabouraud's milieu d'epreuve, 28° C., 24 to 96 hours; for MIC: Aspergillus, read-out: MIC values in γ/ml of nutrient medium for Aspergillus species
Protocol: as §1

Microsporon felineum = assay: Antimycotic in vitro activity (series dilution test), Microsporon felineum; format: cell-based; conditions: Sabouraud's milieu d'epreuve, 28° C., 24 to 96 hours; for MIC: read-out: MIC values in γ/ml of nutrient medium for Microsporon felineum
Protocol: as §1

Candida = assay: Antimycotic in vivo activity (oral) in candidosis of mice; design: key: +++++: very good action=≥90% of survivors on the 6th day after infection; ++++: good action=≥80% of survivors on the 6th day after infection; +++: action=≥60% of survivors on the 6th day after infection; ++: poor action=≥40% of survivors on the 6th day after infection; +: trace of action; n.a.: no action; conditions: mice SPF-CF1, i.v. infection with Candida, 100 mg/kg oral one hour before and seven hours after infection
Protocol: Mice of the type SPF-CF1 were infected intravenously with 1-2×10^6 logarithmically growing Candida cells, which were suspended in physiological sodium chloride solution. The animals were treated orally one hour before and seven hours after the infection with, in each case, 100 mg/kg of body weight of the formulations.
Untreated animals died from the infection 2 to 6 days after infection. The survival rate on the 6th day after infection was about 5% in the case of the untreated control animals.

O=C1c2ccccc2C(c2ccccc2)(n2ccnc2)c2ccccc21 [drawing 19]
MIC values in γ/ml of nutrient medium for Trichophyton mentagrophytes [1]: < 1 µg/mL
MIC values in γ/ml of nutrient medium for Candida albicans (Candida albicans): 8 µg/mL
MIC values in γ/ml of nutrient medium for Penicillium commune (Penicillium commune): 8 µg/mL
MIC values in γ/ml of nutrient medium for Aspergillus species (Aspergillus species): 32 µg/mL
MIC values in γ/ml of nutrient medium for Microsporon felineum (Microsporon felineum): < 1 µg/mL

c1ccc(C2(n3ccnc3)c3ccccc3Oc3ccccc32)cc1 [reference compound]
MIC [1]: > 100 µg/mL
MIC (Candida albicans): 20 µg/mL (≈ 61.7 µM)
MIC (Penicillium commune): 100 µg/mL (≈ 308 µM)
MIC (Microsporon felineum): > 100 µg/mL

Cc1ccccc1C1(n2ccnc2)c2ccccc2C(=O)c2ccccc21 [drawing 35]
Action (survivors on the 6th day after infection) (Candida): +

c1ccc(C2(n3ccnc3)c3ccccc3C(c3ccccc3)(n3ccnc3)c3ccccc32)cc1 (stereo not drawn) [drawing 32]
Action (survivors on the 6th day after infection) (Candida): ++ (poor action=≥40% of survivors on the 6th day after infection)

Cc1ccc(C2(n3ccnc3)c3ccccc3C(=O)c3ccccc32)cc1 [drawing 25]
MIC values in γ/ml of nutrient medium for Trichophyton mentagrophytes [1]: < 1 µg/mL
MIC values in γ/ml of nutrient medium for Candida albicans (Candida albicans): > 64 µg/mL
MIC values in γ/ml of nutrient medium for Penicillium commune (Penicillium commune): 8 µg/mL
MIC values in γ/ml of nutrient medium for Aspergillus species (Aspergillus species): > 64 µg/mL
MIC values in γ/ml of nutrient medium for Microsporon felineum (Microsporon felineum): 4 µg/mL

O=C1c2ccccc2C(c2ccccc2)(n2ccnc2)c2ccccc21 [drawing 20]
MIC values in γ/ml of nutrient medium for Trichophyton mentagrophytes [1]: < 1 µg/mL
MIC values in γ/ml of nutrient medium for Candida albicans (Candida albicans): > 64 µg/mL
MIC values in γ/ml of nutrient medium for Penicillium commune (Penicillium commune): 8 µg/mL
MIC values in γ/ml of nutrient medium for Aspergillus species (Aspergillus species): 64 µg/mL
MIC values in γ/ml of nutrient medium for Microsporon felineum (Microsporon felineum): 4 µg/mL

O=C1c2ccccc2C(c2ccccc2)(n2ccnc2)c2ccccc21 [drawing 21]
MIC values in γ/ml of nutrient medium for Trichophyton mentagrophytes [1]: < 1 µg/mL
MIC values in γ/ml of nutrient medium for Candida albicans (Candida albicans): > 64 µg/mL
MIC values in γ/ml of nutrient medium for Penicillium commune (Penicillium commune): 8 µg/mL
MIC values in γ/ml of nutrient medium for Aspergillus species (Aspergillus species): 32 µg/mL
MIC values in γ/ml of nutrient medium for Microsporon felineum (Microsporon felineum): 4 µg/mL

O=C1c2ccccc2C(c2ccccc2)(n2ccnc2)c2ccccc21 [drawing 18]
MIC [1]: < 1 µg/mL
MIC values in γ/ml of nutrient medium for Candida albicans (Candida albicans): 4 µg/mL
MIC (Penicillium commune): 4 µg/mL (≈ 11.9 µM)
MIC values in γ/ml of nutrient medium for Aspergillus species (Aspergillus species): 4 µg/mL
MIC values in γ/ml of nutrient medium for Microsporon felineum (Microsporon felineum): 8 µg/mL

CSc1ccc(C2(n3ccnc3)c3ccccc3-c3ccccc32)cc1 [reference compound]
MIC [1]: < 4 µg/mL
MIC (Candida albicans): 100 µg/mL (≈ 282 µM)
MIC (Penicillium commune): > 100 µg/mL
MIC (Aspergillus species): > 100 µg/mL
MIC (Microsporon felineum): 20 µg/mL (≈ 56.4 µM)

Cc1ccccc1C1(n2ccnc2)c2ccccc2C(=O)c2ccccc21 [drawing 22]
MIC [1]: < 1 µg/mL
MIC (Candida albicans): > 64 µg/mL
MIC values in γ/ml of nutrient medium for Penicillium commune (Penicillium commune): > 64 µg/mL
MIC (Aspergillus species): > 64 µg/mL
MIC (Microsporon felineum): < 1 µg/mL

O=C1c2ccccc2C(c2ccccc2)(n2ccnc2)c2ccccc21 [drawing 31]
Action (survivors on the 6th day after infection) (Candida): +++ (action=≥60% of survivors on the 6th day after infection)

Cc1ccccc1C1(n2ccnc2)c2ccccc2C(=O)c2ccccc21 [drawing 23]
MIC values in γ/ml of nutrient medium for Trichophyton mentagrophytes [1]: < 1 µg/mL
MIC values in γ/ml of nutrient medium for Candida albicans (Candida albicans): 32 µg/mL
MIC values in γ/ml of nutrient medium for Penicillium commune (Penicillium commune): 4 µg/mL
MIC values in γ/ml of nutrient medium for Aspergillus species (Aspergillus species): > 64 µg/mL
MIC values in γ/ml of nutrient medium for Microsporon felineum (Microsporon felineum): 1 µg/mL

CSc1ccc(C2(n3ccnc3)c3ccccc3CCc3ccccc32)cc1 [reference compound]
MIC [1]: 10 µg/mL (≈ 26.1 µM)
MIC (Penicillium commune): > 100 µg/mL
MIC (Aspergillus species): > 100 µg/mL
MIC (Microsporon felineum): 40 µg/mL (≈ 105 µM)

c1ccc(C2(n3ccnc3)c3ccccc3C(c3ccccc3)(n3ccnc3)c3ccccc32)cc1 (stereo not drawn) [drawing 26]
MIC [1]: 32 µg/mL (≈ 68.9 µM)
MIC (Candida albicans): 4 µg/mL (≈ 8.61 µM)
MIC (Penicillium commune): > 64 µg/mL

c1ccc(C2(n3ccnc3)c3ccccc3Sc3ccccc32)cc1 [reference compound]
MIC [1]: > 100 µg/mL
MIC (Candida albicans): 40 µg/mL (≈ 117 µM)
MIC (Penicillium commune): > 100 µg/mL
MIC (Microsporon felineum): > 100 µg/mL

Cc1ccc(C2(n3ccnc3)c3ccccc3C(=O)c3ccccc32)cc1 [drawing 24]
MIC [1]: < 1 µg/mL
MIC (Candida albicans): 64 µg/mL (≈ 183 µM)
MIC values in γ/ml of nutrient medium for Penicillium commune (Penicillium commune): 64 µg/mL
MIC (Aspergillus species): > 64 µg/mL
MIC (Microsporon felineum): 8 µg/mL (≈ 22.8 µM)
